Laboratory results reported in publication PMC4774911, “Biochemical Screening of Five Protein Kinases from Plasmodium falciparum against 14,000 Cell-Active Compounds” (PLoS ONE, 2016).
Values joined by “and” are separate entries in the source; they are usually repeats but may differ in a detail not shown here. Identical values can stand only once.

Legend:
Assay in all cases: biochemical
Parameters in all cases: endogenous in cells; host or cells: K562 cell extract; species or system K562 (extract); replicate k of n = 2 (each experiment ID is one independent experiment; two experiment IDs per compound)
Conditions in all cases: read-out: KDapp
CDK7 = CDK7 (Homo sapiens, UniProt P50613)
MAP2K1 = MAP2K1 (Homo sapiens, UniProt Q02750)
EPHB4 = target: T1, EPHB4 (Homo sapiens, UniProt P54760)
T1 sequence (P54760 1-987): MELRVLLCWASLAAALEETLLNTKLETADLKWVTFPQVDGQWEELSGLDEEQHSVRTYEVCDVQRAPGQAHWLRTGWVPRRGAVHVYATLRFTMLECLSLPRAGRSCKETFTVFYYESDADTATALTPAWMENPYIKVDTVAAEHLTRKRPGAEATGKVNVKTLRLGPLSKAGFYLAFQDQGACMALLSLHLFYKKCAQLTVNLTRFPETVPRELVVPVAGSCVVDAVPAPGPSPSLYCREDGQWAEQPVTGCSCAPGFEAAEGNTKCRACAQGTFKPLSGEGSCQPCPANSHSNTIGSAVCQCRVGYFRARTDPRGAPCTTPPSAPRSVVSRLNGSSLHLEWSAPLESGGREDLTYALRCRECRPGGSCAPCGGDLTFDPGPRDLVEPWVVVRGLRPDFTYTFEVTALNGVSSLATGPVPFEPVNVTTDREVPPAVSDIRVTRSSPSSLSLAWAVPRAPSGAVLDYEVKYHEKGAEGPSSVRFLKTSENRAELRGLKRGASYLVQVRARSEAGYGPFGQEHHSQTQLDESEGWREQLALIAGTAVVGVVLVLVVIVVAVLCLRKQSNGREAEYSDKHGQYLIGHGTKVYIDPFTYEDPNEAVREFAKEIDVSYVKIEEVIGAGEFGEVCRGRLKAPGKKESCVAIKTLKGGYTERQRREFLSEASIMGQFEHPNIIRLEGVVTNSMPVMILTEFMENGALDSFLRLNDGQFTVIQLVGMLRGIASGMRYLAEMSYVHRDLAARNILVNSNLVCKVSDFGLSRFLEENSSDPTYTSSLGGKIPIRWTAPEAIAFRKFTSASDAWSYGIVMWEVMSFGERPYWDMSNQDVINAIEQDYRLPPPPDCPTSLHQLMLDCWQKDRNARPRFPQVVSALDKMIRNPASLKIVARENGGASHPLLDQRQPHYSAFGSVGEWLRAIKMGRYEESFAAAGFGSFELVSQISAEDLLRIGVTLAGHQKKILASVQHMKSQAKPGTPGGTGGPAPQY

PRKCD = PRKCD (Homo sapiens, UniProt Q05655)
STK39 = STK39 (Homo sapiens, UniProt Q9UEW8)
SIK2 = SIK2 (Homo sapiens, UniProt Q9H0K1)
MARK2 = MARK2 (Homo sapiens, UniProt Q7KZI7)
PCTK2 = PCTK2 (Homo sapiens, UniProt Q00537)
CSK = CSK (Homo sapiens, UniProt P41240)
BRAF = BRAF (Homo sapiens, UniProt P15056)
PRKCB = PRKCB (Homo sapiens, UniProt P05771)
CLK1 = CLK1 (Homo sapiens, UniProt P49759)
Sequence of CLK1 (P49759 whole entry): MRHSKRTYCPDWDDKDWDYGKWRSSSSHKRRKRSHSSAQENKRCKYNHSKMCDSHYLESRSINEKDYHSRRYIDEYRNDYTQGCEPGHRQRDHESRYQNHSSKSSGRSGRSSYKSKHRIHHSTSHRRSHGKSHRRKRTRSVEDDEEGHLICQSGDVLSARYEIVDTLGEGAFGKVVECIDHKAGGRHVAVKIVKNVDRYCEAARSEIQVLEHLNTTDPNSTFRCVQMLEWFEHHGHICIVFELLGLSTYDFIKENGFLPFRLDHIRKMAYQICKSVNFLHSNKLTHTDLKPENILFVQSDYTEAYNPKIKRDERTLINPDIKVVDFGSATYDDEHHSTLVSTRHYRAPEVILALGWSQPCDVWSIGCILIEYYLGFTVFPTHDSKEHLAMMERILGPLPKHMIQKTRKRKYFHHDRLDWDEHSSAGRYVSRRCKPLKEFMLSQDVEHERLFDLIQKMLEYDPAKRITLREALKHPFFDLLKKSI

Sequence of MAP2K1 (Q02750 whole entry): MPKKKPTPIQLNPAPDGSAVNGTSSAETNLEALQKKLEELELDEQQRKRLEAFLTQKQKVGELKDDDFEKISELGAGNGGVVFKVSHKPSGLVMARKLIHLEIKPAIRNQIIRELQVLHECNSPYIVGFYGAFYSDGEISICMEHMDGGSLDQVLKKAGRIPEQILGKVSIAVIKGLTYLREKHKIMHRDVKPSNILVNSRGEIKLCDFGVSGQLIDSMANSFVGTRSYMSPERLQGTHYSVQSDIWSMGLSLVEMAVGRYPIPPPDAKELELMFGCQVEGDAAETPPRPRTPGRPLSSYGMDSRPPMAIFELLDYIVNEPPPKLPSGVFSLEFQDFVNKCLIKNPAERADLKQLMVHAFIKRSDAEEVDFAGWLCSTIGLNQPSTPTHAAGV
Sequence of PRKCB (P05771 whole entry): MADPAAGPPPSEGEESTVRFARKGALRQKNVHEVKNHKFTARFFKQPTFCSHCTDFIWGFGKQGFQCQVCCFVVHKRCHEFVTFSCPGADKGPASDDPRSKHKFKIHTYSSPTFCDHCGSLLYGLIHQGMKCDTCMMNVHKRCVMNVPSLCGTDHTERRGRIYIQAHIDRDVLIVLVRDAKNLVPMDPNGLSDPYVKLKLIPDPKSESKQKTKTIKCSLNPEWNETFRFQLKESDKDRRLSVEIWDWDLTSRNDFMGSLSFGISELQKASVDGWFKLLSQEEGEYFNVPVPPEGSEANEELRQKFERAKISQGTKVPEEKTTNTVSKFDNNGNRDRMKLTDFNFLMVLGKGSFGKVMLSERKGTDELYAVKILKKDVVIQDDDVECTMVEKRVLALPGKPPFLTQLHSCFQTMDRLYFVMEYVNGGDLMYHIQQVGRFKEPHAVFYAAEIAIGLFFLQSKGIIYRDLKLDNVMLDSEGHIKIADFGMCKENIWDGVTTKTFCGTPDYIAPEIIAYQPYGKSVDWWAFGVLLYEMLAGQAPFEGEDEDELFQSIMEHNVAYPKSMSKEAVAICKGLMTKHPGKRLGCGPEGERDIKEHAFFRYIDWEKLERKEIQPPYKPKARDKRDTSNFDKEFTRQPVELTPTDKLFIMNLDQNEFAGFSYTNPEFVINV
Sequence of BRAF (P15056 whole entry): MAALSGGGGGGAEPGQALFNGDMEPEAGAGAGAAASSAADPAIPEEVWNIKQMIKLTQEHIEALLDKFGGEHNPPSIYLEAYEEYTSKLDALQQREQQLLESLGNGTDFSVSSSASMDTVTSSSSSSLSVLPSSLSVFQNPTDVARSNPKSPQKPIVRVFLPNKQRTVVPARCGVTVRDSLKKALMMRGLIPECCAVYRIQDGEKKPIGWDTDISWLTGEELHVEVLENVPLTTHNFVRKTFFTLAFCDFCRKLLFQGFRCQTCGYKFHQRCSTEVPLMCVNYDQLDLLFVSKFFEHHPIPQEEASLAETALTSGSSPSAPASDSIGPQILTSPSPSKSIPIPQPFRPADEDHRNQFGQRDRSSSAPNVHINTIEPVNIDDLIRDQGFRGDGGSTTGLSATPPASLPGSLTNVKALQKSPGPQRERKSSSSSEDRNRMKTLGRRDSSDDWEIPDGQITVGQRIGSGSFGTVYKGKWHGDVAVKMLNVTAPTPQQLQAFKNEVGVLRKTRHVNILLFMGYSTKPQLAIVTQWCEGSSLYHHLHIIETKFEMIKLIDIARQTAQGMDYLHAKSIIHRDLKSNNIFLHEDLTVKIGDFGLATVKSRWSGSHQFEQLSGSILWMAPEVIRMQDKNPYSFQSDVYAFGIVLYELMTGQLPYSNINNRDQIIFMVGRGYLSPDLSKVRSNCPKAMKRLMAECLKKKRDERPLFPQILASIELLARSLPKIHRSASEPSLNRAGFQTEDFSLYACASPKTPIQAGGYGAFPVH
Sequence of SIK2 (Q9H0K1 whole entry): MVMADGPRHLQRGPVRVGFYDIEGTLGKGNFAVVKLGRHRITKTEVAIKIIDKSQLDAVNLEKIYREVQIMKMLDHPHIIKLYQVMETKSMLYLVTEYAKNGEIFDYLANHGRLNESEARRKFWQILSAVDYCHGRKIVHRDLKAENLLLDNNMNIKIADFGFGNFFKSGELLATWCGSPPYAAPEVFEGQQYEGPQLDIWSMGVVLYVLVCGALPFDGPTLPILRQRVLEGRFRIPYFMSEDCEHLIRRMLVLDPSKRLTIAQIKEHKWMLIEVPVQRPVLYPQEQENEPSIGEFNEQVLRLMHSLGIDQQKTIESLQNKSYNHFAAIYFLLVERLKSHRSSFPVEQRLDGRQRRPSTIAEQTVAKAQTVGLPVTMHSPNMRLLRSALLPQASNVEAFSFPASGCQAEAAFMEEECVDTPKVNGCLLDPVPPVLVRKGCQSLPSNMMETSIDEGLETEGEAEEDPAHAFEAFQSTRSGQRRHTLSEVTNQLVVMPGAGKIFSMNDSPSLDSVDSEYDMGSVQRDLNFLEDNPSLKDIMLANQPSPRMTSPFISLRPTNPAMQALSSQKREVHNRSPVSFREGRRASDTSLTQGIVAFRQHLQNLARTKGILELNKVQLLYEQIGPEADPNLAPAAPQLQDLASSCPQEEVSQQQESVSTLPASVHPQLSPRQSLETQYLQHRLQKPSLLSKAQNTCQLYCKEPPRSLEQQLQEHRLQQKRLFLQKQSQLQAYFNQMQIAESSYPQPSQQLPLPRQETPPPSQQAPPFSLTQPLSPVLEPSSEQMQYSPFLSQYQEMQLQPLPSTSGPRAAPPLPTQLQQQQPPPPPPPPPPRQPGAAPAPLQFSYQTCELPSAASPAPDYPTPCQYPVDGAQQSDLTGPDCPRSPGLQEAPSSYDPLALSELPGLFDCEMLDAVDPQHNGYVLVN
Sequence of PCTK2 (Q00537 whole entry): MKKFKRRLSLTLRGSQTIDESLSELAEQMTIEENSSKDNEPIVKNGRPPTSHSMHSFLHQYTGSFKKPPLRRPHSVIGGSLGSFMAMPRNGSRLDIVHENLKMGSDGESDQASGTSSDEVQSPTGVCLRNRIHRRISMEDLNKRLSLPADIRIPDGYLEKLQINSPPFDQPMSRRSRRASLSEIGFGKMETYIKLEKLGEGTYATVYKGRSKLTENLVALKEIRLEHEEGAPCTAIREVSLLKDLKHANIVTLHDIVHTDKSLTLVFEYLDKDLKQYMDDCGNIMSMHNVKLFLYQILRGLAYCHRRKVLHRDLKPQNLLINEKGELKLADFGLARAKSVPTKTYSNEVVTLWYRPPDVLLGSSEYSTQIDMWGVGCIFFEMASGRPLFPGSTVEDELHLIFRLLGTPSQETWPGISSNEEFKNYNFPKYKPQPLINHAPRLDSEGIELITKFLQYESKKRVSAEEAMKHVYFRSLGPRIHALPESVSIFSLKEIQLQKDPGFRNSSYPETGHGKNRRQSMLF
Sequence of CDK7 (P50613 whole entry): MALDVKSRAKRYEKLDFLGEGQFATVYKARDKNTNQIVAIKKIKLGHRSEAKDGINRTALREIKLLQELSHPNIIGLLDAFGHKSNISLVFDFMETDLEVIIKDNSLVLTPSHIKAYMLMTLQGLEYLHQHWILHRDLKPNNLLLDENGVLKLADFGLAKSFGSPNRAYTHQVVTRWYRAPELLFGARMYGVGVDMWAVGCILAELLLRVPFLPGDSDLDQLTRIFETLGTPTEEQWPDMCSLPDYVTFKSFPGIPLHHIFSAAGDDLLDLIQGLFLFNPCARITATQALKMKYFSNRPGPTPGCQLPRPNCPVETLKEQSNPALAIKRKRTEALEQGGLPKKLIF
Sequence of MARK2 (Q7KZI7 whole entry): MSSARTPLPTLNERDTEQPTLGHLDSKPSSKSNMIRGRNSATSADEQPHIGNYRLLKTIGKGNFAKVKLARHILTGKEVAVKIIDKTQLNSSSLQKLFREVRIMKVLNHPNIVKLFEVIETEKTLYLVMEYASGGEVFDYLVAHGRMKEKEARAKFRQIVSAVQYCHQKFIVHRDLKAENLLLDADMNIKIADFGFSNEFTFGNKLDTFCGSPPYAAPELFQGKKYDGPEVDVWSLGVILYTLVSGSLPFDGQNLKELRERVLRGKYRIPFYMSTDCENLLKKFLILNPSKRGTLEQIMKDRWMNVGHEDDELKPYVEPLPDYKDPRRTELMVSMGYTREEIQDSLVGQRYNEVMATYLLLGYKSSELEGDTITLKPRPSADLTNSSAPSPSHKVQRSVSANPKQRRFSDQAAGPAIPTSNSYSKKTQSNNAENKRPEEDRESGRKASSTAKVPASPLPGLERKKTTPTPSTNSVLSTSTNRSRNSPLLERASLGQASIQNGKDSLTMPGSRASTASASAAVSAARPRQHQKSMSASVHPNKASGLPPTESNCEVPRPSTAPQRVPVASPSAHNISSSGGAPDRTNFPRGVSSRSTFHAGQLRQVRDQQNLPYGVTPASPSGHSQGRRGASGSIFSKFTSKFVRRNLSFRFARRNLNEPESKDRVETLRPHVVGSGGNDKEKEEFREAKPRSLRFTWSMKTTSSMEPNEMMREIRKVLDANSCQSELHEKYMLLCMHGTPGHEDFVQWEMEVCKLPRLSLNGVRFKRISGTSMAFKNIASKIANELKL

Compound	Kd (CDK7)	Kd (MAP2K1)	Kd (EPHB4) [nM]	Kd (PRKCD) [nM]	Kd (STK39) [nM]	Kd (SIK2)	Kd (MARK2)	Kd (PCTK2)	Kd (CSK) [nM]	Kd (BRAF)	Kd (PRKCB)	Kd (CLK1)
CN1CCN(c2ccc(Nc3ncc(C#N)c(Nc4ccccc4C(N)=O)n3)cc2)CC1.Cl [TCMDC-134116]	422 nM and 494 nM	1630 nM and 1450 nM	2110	685	58	10.6 nM	121 nM and 115 nM	57.7 nM and 83.5 nM	2470	1570 nM	410 nM	20.7 nM and 21.1 nM
Cl.NCC1(c2nc(-c3ccc(Cl)c(O)c3)c(-c3ccncc3)[nH]2)CCCCC1 [TCMDC-141154]		8760 nM	2600	806		173 nM and 161 nM			2650	861 nM and 705 nM	5660 nM and 2780 nM	
CN(C)CC(O)COc1ccc(Nc2ncc([N+](=O)[O-])c(Nc3ccccc3O)n2)cc1.O=C(O)C(F)(F)F (stereo not drawn) [TCMDC-141399]	1430 nM and 4620 nM				4760		3510 nM	1140 nM and 1060 nM				171 nM and 119 nM
